In patent publication US20040009511A1, “Identification of compounds which stimulate bone formation using a cell-based screening assay targeting BMP signaling” (priority 2002, published 2004):

Assays:
Format in all cases: cell-based
[1] = system: 9×SBE-6×OSE2-OC-luc reporter construct in 2T3 C-17 cells; assay: Luciferase assay, 9×SBE-6×OSE2-OC-luc reporter stably transfected in 2T3 clone C-17; design: Luciferase Activity: unit not given here; settings: for Luciferase Activity / Luciferase Activity (fold increase) / Effect on luciferase activity of the reporter construct / Luciferase Activity, value in parentheses (fold increase): 24 hours; for Maximal effect, fold increase in luciferase activity: over the concentrations tested
Experimental: (§1) An oligonucleotide containing 9 copies of Smad1 response element (9×SBE) and 6 copies of Cbfa1 response element (6×OSE2) was synthesized in the DNA laboratory at University of Texas Health Science Center at San Antonio. The osteocalcin basal promoter (OC, −155/+1) was amplified by Polymerase Chain Reaction (PCR) using mouse genomic DNA as a template and cloned into pGL3 vector. An 9×SBE-6×OSE2 oligonucleotide was cloned upstream of osteocalcin basal promoter.
(§2) C2C12 and 2T3 cells were plated in 6-well culture plates at densities of 4×10^5 and 2×10^5 cells/well and cultured with DMEM or α minimal essential medium (α MEM) supplemented with 10% FCS for 24 hours. A 9×SBE-6×OSE2-OC-luc-reporter construct (2 μg/well) was co-transfected with pcDNA3 empty vector (0.2 mg/well) in C2C12 and 2T3 cells using lipofactamine plus reagents (Gibco/BRL). Forty eight hours later, G418 (200 μg/ml) was added to the culture plates. Four weeks after G418 selection, the G418 resistant cells were plated in 96-well plates at the density of 1 cell/well and cloned by limiting dilution method.
(§3) C2C12 and 2T3 cells, in which 9×SBE-6×OSE2-OC-luc-reporter construct was stably transfected, were plated in 96-well culture plates at densities of 1×10^4 and 0.5×10^4 cells/well and cultured for 24 hours. The medium was changed to fresh medium supplemented with 2% FCS and different growth factors or hormone were added to culture medium for 24 hours or different compounds were added to culture medium for 2, 6, 12, 24 and 48 hours. The cell lysates were extracted and luciferase activities were determined by luciferase assay kit (Promega, Madison, Wis.) using a Luminometer.
(§4) At the end of the incubation, the cell lysates were extracted using lysis buffer and luciferase activities were measured using a luciferase assay kit (Promega).

[2] = system: 9×SBE-6×OSE2-OC-luc reporter construct in C2C12 C-10-62 cells; assay: Luciferase assay, 9×SBE-6×OSE2-OC-luc reporter stably transfected in C2C12 clone C-10-62; settings: for Maximal effect, fold increase in luciferase activity: over the concentrations tested; for Effect on luciferase activity of the reporter construct: 24 hours
Experimental: as §1, §2, §3, §4

[3] = system: 9×SBE-6×OSE2-OC-luc reporter construct; assay: Luciferase assay, 9×SBE-6×OSE2-OC-luc reporter construct, cells not specified
Text: as §1, §3
Further, a reporter construct which contains multiple copies of both Smad1 (SBE) and Cbfa1 (OSE2) response elements (9×SBE-6×OSE2-OC-luc) was made.

[4] = 2-ME 1.25 μM, 2T3 cell clone 17
[5] = 9-cis RA 1.25 μM, 2T3 cell clone 17
[6] = 9-cis RA 2.5 μM, 2T3 cell clone 17
[7] = 9-cis RA 5 μM, 2T3 cell clone 17
[8] = 9-cis RA 10 μM, 2T3 cell clone 17
[9] = All-trans RA 1.25 μM, 2T3 cell clone 17
[10] = All-trans RA 2.5 μM, 2T3 cell clone 17
[11] = All-trans RA 5 μM, 2T3 cell clone 17
[12] = All-trans RA 10 μM, 2T3 cell clone 17
[13] = TN-16 0.039 μM, 2T3 cell clone 17
[14] = TN-16 0.078 μM, 2T3 cell clone 17
[15] = TN-16 0.156 μM, 2T3 cell clone 17
[16] = TN-16 0.3125 μM, 2T3 cell clone 17
[17] = TN-16 0.625 μM, 2T3 cell clone 17
[18] = TN-16 1.25 μM, 2T3 cell clone 17
[19] = TN-16 2.5 μM, 2T3 cell clone 17

Molecule: COc1cc2c(cc1O)CC[C@@H]1[C@@H]2CC[C@]2(C)[C@@H](O)CC[C@@H]12 [2-ME, 2-methoxyestradiol, reference compound]
- Luciferase Activity ([1]; 2-ME 0.625 μM, 2T3 cell clone 17): 0.052
- Luciferase Activity [1, 4]: 0.059
- Luciferase Activity (fold increase) [1, 4]: 1.2 fold
- Luciferase Activity ([1]; 2-ME 2.5 μM, 2T3 cell clone 17): 0.065
- Luciferase Activity (fold increase) ([1]; 2-ME 2.5 μM, 2T3 cell clone 17): 1.3 fold
- Luciferase Activity ([1]; 2-ME 5 μM, 2T3 cell clone 17): 0.102
- Luciferase Activity (fold increase) ([1]; 2-ME 5 μM, 2T3 cell clone 17): 2.0 fold
- Luciferase Activity ([1]; 2-ME 10 μM, 2T3 cell clone 17): 0.130
- Luciferase Activity (fold increase) ([1]; 2-ME 10 μM, 2T3 cell clone 17): 2.6 fold
- Effect on luciferase activity of the reporter construct ([1]; 2T3 C-17 cells): stimulated the reporter construct in a dose-dependent manner

Molecule: CC1=C(/C=C/C(C)=C\C=C\C(C)=C\C(=O)O)C(C)(C)CCC1 [9-cis RA, 9-cis retinoic acid, reference compound]
- Maximal effect, fold increase in luciferase activity [2]: 5 fold
- Maximal effect, fold increase in luciferase activity ([1]; 2T3 C-17 cells): 5 fold
- Luciferase Activity [1, 5]: 0.160
- Luciferase Activity, value in parentheses (fold increase) [1, 5]: 3.6 fold
- Luciferase Activity [1, 6]: 0.160
- Luciferase Activity, value in parentheses (fold increase) [1, 6]: 3.6 fold
- Luciferase Activity [1, 7]: 0.164
- Luciferase Activity, value in parentheses (fold increase) [1, 7]: 3.6 fold
- Luciferase Activity [1, 8]: 0.226
- Luciferase Activity, value in parentheses (fold increase) [1, 8]: 5.0 fold

Molecule: CC1=C(/C=C/C(C)=C/C=C/C(C)=C/C(=O)O)C(C)(C)CCC1 [All-trans RA, all-trans retinoic acid, reference compound]
- Maximal effect, fold increase in luciferase activity [2]: 5 fold
- Maximal effect, fold increase in luciferase activity ([1]; 2T3 C-17 cells): 5 fold
- Luciferase Activity [1, 9]: 0.113
- Luciferase Activity, value in parentheses (fold increase) [1, 9]: 2.5 fold
- Luciferase Activity [1, 10]: 0.142
- Luciferase Activity, value in parentheses (fold increase) [1, 10]: 3.2 fold
- Luciferase Activity [1, 11]: 0.164
- Luciferase Activity, value in parentheses (fold increase) [1, 11]: 3.6 fold
- Luciferase Activity [1, 12]: 0.219
- Luciferase Activity, value in parentheses (fold increase) [1, 12]: 4.9 fold

Molecule: CC(Nc1ccccc1)=C1C(=O)NC(Cc2ccccc2)C1=O (centres unmarked) [TN-16, reference compound]
- Effect on luciferase activity of the reporter construct ([1]; 2T3 C-17 cells): stimulated the reporter construct in a dose-dependent manner
- Maximal effect, fold increase in luciferase activity ([1]; 2T3 C-17 cells): 5 fold
- Luciferase Activity [1, 13]: 0.022
- Luciferase Activity (fold increase) [1, 13]: 0.9 fold
- Luciferase Activity [1, 14]: 0.037
- Luciferase Activity (fold increase) [1, 14]: 1.6 fold
- Luciferase Activity [1, 15]: 0.036
- Luciferase Activity (fold increase) [1, 15]: 1.6 fold
- Luciferase Activity [1, 16]: 0.038
- Luciferase Activity (fold increase) [1, 16]: 1.6 fold
- Luciferase Activity [1, 17]: 0.057
- Luciferase Activity (fold increase) [1, 17]: 2.5 fold
- Luciferase Activity [1, 18]: 0.081
- Luciferase Activity (fold increase) [1, 18]: 3.5 fold
- Luciferase Activity [1, 19]: 0.079
- Luciferase Activity (fold increase) [1, 19]: 3.4 fold
- Luciferase Activity ([1]; TN-16 5 μM, 2T3 cell clone 17): 0.111
- Luciferase Activity (fold increase) ([1]; TN-16 5 μM, 2T3 cell clone 17): 4.8 fold
- Luciferase Activity ([1]; TN-16 10 μM, 2T3 cell clone 17): 0.098
- Luciferase Activity (fold increase) ([1]; TN-16 10 μM, 2T3 cell clone 17): 4.2 fold

Molecule: TGF-β
- Effect on luciferase activity of the reporter construct [2]: no significant effects
- Luciferase activity normalized to protein content ([1]; 2T3 C-17 cells): no significant effect
- Maximal effect, fold increase in luciferase activity ([1]; 2T3 C-17 cells): 3 fold
- Luciferase Activity ([1]; TGF-β 0.0195 ng/ml, 2T3 C-17 cells): 0.046
- Luciferase Activity ([1]; TGF-β 0.039 ng/ml, 2T3 C-17 cells): 0.052
- Luciferase Activity ([1]; TGF-β 0.078 ng/ml, 2T3 C-17 cells): 0.053
- Luciferase Activity ([1]; TGF-β 0.156 ng/ml, 2T3 C-17 cells): 0.062
- Luciferase Activity ([1]; TGF-β 0.3125 ng/ml, 2T3 C-17 cells): 0.08
- Luciferase Activity ([1]; TGF-β 0.625 ng/ml, 2T3 C-17 cells): 0.09
- Luciferase Activity ([1]; TGF-β 1.25 ng/ml, 2T3 C-17 cells): 0.102
- Luciferase Activity ([1]; TGF-β 2.5 ng/ml, 2T3 C-17 cells): 0.156
- Luciferase Activity ([1]; TGF-β 5 ng/ml, 2T3 C-17 cells): 0.077
- Luciferase Activity ([1]; TGF-β 10 ng/ml, 2T3 C-17 cells): 0.081

Molecule: acid FGF: Acidic Fibroblast Growth Factor
- Effect on luciferase activity of the reporter construct [2]: no significant effects
- Luciferase Activity ([1]; acid FGF 0.195 ng/ml, 2T3 C-17 cells): 0.06
- Luciferase Activity ([1]; acid FGF 0.39 ng/ml, 2T3 C-17 cells): 0.057
- Luciferase Activity ([1]; acid FGF 0.78 ng/ml, 2T3 C-17 cells): 0.058
- Luciferase Activity ([1]; acid FGF 1.56 ng/ml, 2T3 C-17 cells): 0.051
- Luciferase Activity ([1]; acid FGF 3.125 ng/ml, 2T3 C-17 cells): 0.052
- Luciferase Activity ([1]; acid FGF 6.25 ng/ml, 2T3 C-17 cells): 0.054
- Luciferase Activity ([1]; acid FGF 12.5 ng/ml, 2T3 C-17 cells): 0.051
- Luciferase Activity ([1]; acid FGF 25 ng/ml, 2T3 C-17 cells): 0.052
- Luciferase Activity ([1]; acid FGF 50 ng/ml, 2T3 C-17 cells): 0.058
- Luciferase Activity ([1]; acid FGF 100 ng/ml, 2T3 C-17 cells): 0.075

B1: noggin: BMP binding protein noggin (protein, UniProt Q13253 28-232, looked up)
Noggin: QHYLHIRPAPSDNLPLVDLIEHPDPIFDPKEKDLNETLLRSLLGGHYDPGFMATSPPEDRPGGGGGAAGGAEDLAELDQLLRQRPSGAMPSEIKGLEFSEGLAQGKKQRLSKKLRRKLQMWLWSQTFCPVLYAWNDLGSRFWPRYVKVGSCFSKRSCSVPEGMVCKPSKSVHLTVLRWRCQRRGGQRCGWIPIQYPIISECKCSC
- Effect on BMP-2-induced reporter activity ([3]; 500 ng/ml of noggin, 100 ng/ml of BMP-2): completely blocked
- Inhibition of BMP-2-induced luciferase activity ([3]; dose-response): inhibit BMP-2-induced luciferase activity in a dose-dependent manner

B2: PTH: Parathyroid Hormone (protein, UniProt P01270 32-115, looked up)
Parathyroid hormone: SVSEIQLMHNLGKHLNSMERVEWLRKKLQDVHNFVALGAPLAPRDAGSQRPRKKEDNVLVESHEKSLGEADKADVNVLTKAKSQ
modifications: Parathyroid hormone
- Luciferase Activity ([1]; PTH 0.195 ng/ml, 2T3 C-17 cells): 0.05
- Luciferase Activity ([1]; PTH 0.39 ng/ml, 2T3 C-17 cells): 0.053
- Luciferase Activity ([1]; PTH 0.78 ng/ml, 2T3 C-17 cells): 0.047
- Luciferase Activity ([1]; PTH 1.56 ng/ml, 2T3 C-17 cells): 0.05
- Luciferase Activity ([1]; PTH 3.125 ng/ml, 2T3 C-17 cells): 0.05
- Luciferase Activity ([1]; PTH 6.25 ng/ml, 2T3 C-17 cells): 0.048
- Luciferase Activity ([1]; PTH 12.5 ng/ml, 2T3 C-17 cells): 0.051
- Luciferase Activity ([1]; PTH 25 ng/ml, 2T3 C-17 cells): 0.053
- Luciferase Activity ([1]; PTH 50 ng/ml, 2T3 C-17 cells): 0.053
- Luciferase Activity ([1]; PTH 100 ng/ml, 2T3 C-17 cells): 0.055
